The values below come from patent US20240400584A1, “COMPOUNDS AND METHODS FOR MODULATING SPLICING” (REMIX THERAPEUTICS INC., priority 2021, published 2024).

The structures appear in SMILES notation.

The subject of experiment [1] is HTT. Nature of the experiment: RT-qPCR splicing assay, HTT AJ/CJ mRNA. The class given is cell-based, human. Conditions: Homo sapiens, 24 h, A673 or K562 cells; for IC50: decrease in canonical junction mRNA; for AC50: increase in alternative junction mRNA. The gist of the method:
(§1)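 Cells: A673 (DMEM/10% FBS) or K562 (IMDM/10% FBS). Dosing: 11-pt 3-fold, top 10 uM final, DMSO ≤0.25%, 24 h, 37° C. Readout: one-step RT-qPCR on lysate, CJ vs AJ isoforms; ΔCt vs housekeeper, ΔΔCt vs DMSO, 2^(−ΔΔCt) RQ → % response.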

Experiment [2] relates to MYB. Nature of the experiment: RT-qPCR splicing assay, MYB AJ/CJ mRNA. Type of experiment: cell-based. Conditions: Homo sapiens, A673 or K562 cells, 24 hours; for IC50: decrease in canonical junction mRNA; for AC50: increase in alternative junction mRNA. The gist of the method:
as §1

Experiment [3] has as its system HTT. Nature of the experiment: Gene panel canonical junction qPCR assay, HTT CJ mRNA (Table 7). Conditions: Homo sapiens, read-out: HTT CJ mRNA decrease IC50. The class given is cell-based, human. The gist of the method: (§2)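 A673 or K562 cells were treated with compound; lysates went through cDNA synthesis and RT-qPCR, with a probe or primer spanning the canonical exon–exon junction. ΔCt vs housekeeper (GAPDH, GUSB or PPIA), normalized to DMSO (2^(−ΔΔCt)), converted to percentage response; IC50 from 4-parameter logistic fit of CJ decrease.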

The subject of experiment [4] is SMN2. Nature of the experiment: Gene panel canonical junction qPCR assay, SMN2 CJ mRNA (Table 7). Type of experiment: cell-based. The following applies: Homo sapiens, read-out: SMN2 CJ mRNA decrease IC50. The gist of the method: as §2
Experiment [5] deals with MYB. Nature of the experiment: Gene panel canonical junction qPCR assay, MYB CJ mRNA (Table 7). Type of experiment: cell-based. Conditions: Homo sapiens, read-out: MYB CJ mRNA decrease IC50. The gist of the method:
as §2
(In general: Quantitative PCR measures a nucleic acid by following its amplification.)

In experiment [6] the test system is Target C. Nature of the experiment: Gene panel canonical junction qPCR assay, Target C CJ mRNA (Table 7). Type of experiment: cell-based, human. The following applies: Homo sapiens, read-out: Target C CJ mRNA decrease IC50. The gist of the method: as §2

Usually IC50 stands for the point on the concentration scale where inhibition reaches its midpoint. As usually defined, the AC50 is the concentration at which the activity in the assay is half-maximal.

For the compound `CC(C)(C)NC1CCN(c2ccc3c(n2)OCc2cc(-c4cnnc(OC5CC5)c4)ccc2-3)C1` (stereo not drawn) [Compound 268, N-tert-butyl-1-[8-(6-cyclopropoxypyridazin-4-yl)-6H-isochromeno[3,4-b]pyridin-3-yl]pyrrolidin-3-amine], the IC50 in experiment [1] is 1000 to 10000 nM; in experiment [2], > 10000 nM; in experiment [3] it was 1000 to 10000 nM; in experiment [4], 1000 to 10000 nM; in experiment [5] it was > 10000 nM; in experiment [6] it was > 10000 nM. Further, the AC50 was 1000 to 10000 nM in experiment [1] and > 10000 nM in experiment [2].
On to `FC1(F)CC2CC(Oc3ccc4c(n3)OCc3cc(-c5cn[nH]c5)ccc3-4)CC1N2` (stereo not drawn) [Compound 224, 6,6-difluoro-3-{[8-(1H-pyrazol-4-yl)-6H-isochromeno[3,4-b]pyridin-3-yl]oxy}-8-azabicyclo[3.2.1]octane], for which the 50% inhibitory concentration (IC50) in experiment [1] was 1000 to 10000 nM; in experiment [2] it was > 10000 nM; in experiment [3] it was 1000 to 10000 nM; in experiment [4], 1000 to 10000 nM; in experiment [5], > 10000 nM; in experiment [6], > 10000 nM. The figures for the concentration at half-maximal activity (AC50) in experiment [1] and in experiment [2] were 1000 to 10000 nM and > 10000 nM, respectively.
Take `CCN(c1ccc2c(n1)OCc1cc(-n3cccn3)ccc1-2)[C@@H]1C[C@H]2CC[C@@H](C1)N2` [Compound 191]: the concentration for half-maximal inhibition (IC50) in experiment [1] was 100 to 1000 nM; in experiment [2] it was 1000 to 10000 nM; in experiment [3], 100 to 1000 nM; in experiment [4], 100 to 1000 nM; in experiment [5], 1000 to 10000 nM; in experiment [6], 1000 to 10000 nM. Also, the values for the AC50 in experiment [1] and in experiment [2] were 1000 to 10000 nM and > 10000 nM, respectively.
Regarding `COc1cc(-c2ccc3c(c2)COc2nc(N(C)[C@@H]4C[C@H]5COC[C@@H](C4)N5)ccc2-3)cnn1` [Compound 232, (1R,5S,7r)-N-[8-(6-methoxypyridazin-4-yl)-6H-isochromeno[3,4-b]pyridin-3-yl]-N-methyl-3-oxa-9-azabicyclo[3.3.1]nonan-7-amine], the half-maximal inhibitory concentration (IC50) in experiment [1] was < 100 nM; in experiment [2] it was 100 to 1000 nM; in experiment [3], < 100 nM; in experiment [4] it was < 100 nM; in experiment [5], 100 to 1000 nM; in experiment [6] it was < 100 nM. Also, the half-maximal activity concentration (AC50) in experiment [1] and in experiment [2] was < 100 nM throughout.
Take `COc1cc(-c2ccc3c(c2)COc2nc(N4CCN5CCCC5C4)ccc2-3)cnn1` (stereo not drawn) [Compound 283]: the IC50 lay within 100 to 1000 nM in experiment [1]; 1000 to 10000 nM in experiment [2]; 100 to 1000 nM in experiment [3]; 100 to 1000 nM in experiment [4]; 1000 to 10000 nM in experiment [5]; 1000 to 10000 nM in experiment [6]. Besides, the AC50 in experiment [1] and in experiment [2] was 1000 to 10000 nM in each case.
For `COc1cc(-c2ccc3c(c2)COc2nc(N4CCC(N(C)C(C)C)C4)ccc2-3)cnn1` (stereo not drawn) [Compound 311], the IC50 in experiment [1] lay within 100 to 1000 nM; in experiment [2], 1000 to 10000 nM; in experiment [3] it was 100 to 1000 nM; in experiment [4], 100 to 1000 nM; in experiment [5], 1000 to 10000 nM; in experiment [6], 1000 to 10000 nM. The AC50 in experiment [1] and in experiment [2] was 100 to 1000 nM in each case.
In the case of `CCN(c1ccc2c(n1)OCc1cc(-n3cccn3)ccc1-2)C1CC(C)(C)NC(C)(C)C1` [Compound 189], the half-inhibitory concentration (IC50) in experiment [1] was > 10000 nM; in experiment [2] it was 1000 to 10000 nM; in experiment [3] it was > 10000 nM; in experiment [4], 1000 to 10000 nM; in experiment [5], 1000 to 10000 nM; in experiment [6] it was > 10000 nM. Moreover, the half-maximal activity concentration (AC50) is 1000 to 10000 nM in experiment [1] and > 10000 nM in experiment [2].
For `CC(C)(C)NC1CCN(c2ccc3c(n2)OCc2cc(-c4cnnc(C5CC5)c4)ccc2-3)C1` (stereo not drawn) [Compound 266, N-tert-butyl-1-[8-(6-cyclopropylpyridazin-4-yl)-6H-isochromeno[3,4-b]pyridin-3-yl]pyrrolidin-3-amine], the IC50 was > 10000 nM in experiment [1]; > 10000 nM in experiment [2]; > 10000 nM in experiment [3]; 1000 to 10000 nM in experiment [4]; > 10000 nM in experiment [5]; > 10000 nM in experiment [6]. In addition, the AC50 in experiment [1] and in experiment [2] was > 10000 nM each time.
As to `CC1(C)CC(Oc2ccc3c(n2)OCc2cc(-n4cccn4)ccc2-3)CC(C)(C)N1` [Compound 171], the IC50 in experiment [1] was in the range of 1000 to 10000 nM; in experiment [2], 1000 to 10000 nM; in experiment [3], 1000 to 10000 nM; in experiment [4], 100 to 1000 nM; in experiment [5] it was 1000 to 10000 nM; in experiment [6] it was 1000 to 10000 nM. The AC50 in experiment [1] and in experiment [2] was 1000 to 10000 nM throughout.
`COc1cc(-c2ccc3c(c2)COc2nc(N4CCC(N(C)C5CC5)C4)ccc2-3)cnn1` (stereo not drawn) [Compound 320]: the IC50 is 1000 to 10000 nM in experiment [1]; > 10000 nM in experiment [2]; 1000 to 10000 nM in experiment [3]; 100 to 1000 nM in experiment [4]; > 10000 nM in experiment [5]; 1000 to 10000 nM in experiment [6]. In addition, the AC50 in experiment [1] and in experiment [2] was 1000 to 10000 nM throughout.
For the compound `COc1cc(-c2ccc3c(c2)COc2nc(N(C)[C@H]4C[C@H]5COC[C@@H](C4)N5)ccc2-3)cnn1` [Compound 246], the half-inhibitory concentration (IC50) is > 10000 nM in experiment [1]; > 10000 nM in experiment [2]; > 10000 nM in experiment [3]; 1000 to 10000 nM in experiment [4]; > 10000 nM in experiment [5]; > 10000 nM in experiment [6]. In addition, the AC50 was > 10000 nM in experiment [1] and 1000 to 10000 nM in experiment [2].
`CCN(C)C1CCN(c2ccc3c(n2)OCc2cc(-c4cnnc(OC)c4)ccc2-3)C1` (stereo not drawn) [Compound 310]: the IC50 in experiment [1] lay within 100 to 1000 nM; in experiment [2], 100 to 1000 nM; in experiment [3] it was 100 to 1000 nM; in experiment [4] it was 100 to 1000 nM; in experiment [5], 100 to 1000 nM; in experiment [6], 1000 to 10000 nM. For the same compound, the AC50 fell in the range of 100 to 1000 nM in experiment [1] and 1000 to 10000 nM in experiment [2].
Turning to `COc1cnnc(-c2ccc3c(c2)COc2nc(N4CCC(NC(C)(C)C)C4)ccc2-3)c1` (stereo not drawn) [Compound 292], the IC50 in experiment [1] was > 10000 nM; in experiment [2], > 10000 nM; in experiment [3], > 10000 nM; in experiment [4] it was 1000 to 10000 nM; in experiment [5], > 10000 nM; in experiment [6], 1000 to 10000 nM. Also, the half-maximal activity concentration (AC50) in experiment [1] and in experiment [2] was > 10000 nM each time.
As for `COc1cc(-c2ccc3c(c2)COc2nc(OC4CC(C)(C)NC(C)(C)C4)ncc2-3)cnn1` [Compound 299], the half-inhibitory concentration (IC50) in experiment [1] fell in the range of 100 to 1000 nM; in experiment [2], 1000 to 10000 nM; in experiment [3] it was 100 to 1000 nM; in experiment [4], 100 to 1000 nM; in experiment [5], 1000 to 10000 nM; in experiment [6], 1000 to 10000 nM. Besides, the half-maximal activity concentration (AC50) in experiment [1] lay within 100 to 1000 nM; in experiment [2], 1000 to 10000 nM.
For `COc1cc(-c2ccc3c(c2)COc2nc(N(C)C4CC(C)(C)NC(C)(C)C4)ncc2-3)cnn1` [Compound 276, N-[8-(6-methoxypyridazin-4-yl)-6H-isochromeno[3,4-d]pyrimidin-3-yl]-N,2,2,6,6-pentamethylpiperidin-4-amine], the IC50 in experiment [1] fell in the range of 100 to 1000 nM; in experiment [2] it was 1000 to 10000 nM; in experiment [3] it was 100 to 1000 nM; in experiment [4] it was 100 to 1000 nM; in experiment [5] it was 1000 to 10000 nM; in experiment [6] it was 100 to 1000 nM. In addition, the half-maximal activity concentration (AC50) in experiment [1] fell in the range of 100 to 1000 nM; in experiment [2] it was 1000 to 10000 nM.
